In patent USRE40300E1, “Carbon dioxide enhancement of inhalation therapy” (priority 1999, dated 2008):
Where two headings read alike, the source gives them in different places. Values belong to the molecule of their own block, whether it stands above or below them.

Key:
[1] = Tissue distribution and pharmacokinetics of PTX after PTX-DLPC aerosol generated with normal or 5% CO2-enriched air; format: in vivo, mice; details: for Cmax: lung, inhaled, 10 mg of PTX/ml suspension (nebulized, 30 min aerosol exposure), 30 min, read-out: Pulmonary paclitaxel Cmax
B16-F10 lung metastasis = experiment: Inhibition of B16-F10 lung metastasis by aerosol delivery; format: in vivo, C57BL/6 mice; details: 5% CO2 alone, data not shown
Method: B16-F10 melanoma cell line was obtained from Division of Cancer treatment and Diagnosis Center (DCTDC, NCE, Frederick, Md.) and cultivated in DMEM supplemented with 10% fetal calf serum. […] Twenty-five thousand B16-F10 cells in 200 μl of media are injected per mice via the tail vein of C57BL/6 mice. Lung metastases are visually detected within 2 weeks after inoculation of cells. The cells were used at passages 3-12.
C57BL/6 mice were injected intravenously with 25,000 B16-F10 cells on day 0. The mice were treated with polyethylenimine-p53 aerosol complexes generated using 5% CO2 twice a week starting the day after inoculation of the cancer cells into the mice (on days 1, 4, 8, 11, 15, 18, and 22) with the last treatment on day 22 postinjection (a total of seven aerosol exposures). Control groups included untreated mice, mice treated with polyethyleneimine or with polyethylenimine-Luc aerosol complexes. The control animals start dying around day 24 post tumor cell inoculation, which is when the therapy was stopped and the experiment terminated. The dosage of treatment was 2 mg plasmid/10 ml of aerosolized solution at a polyethyleneimine:DNA (N:P) ratio of 10:1. This is the total amount of DNA aerosolized to the mice. […]

[2] = cited from earlier work
[3] = cited from earlier work; for increase in frequency of breathing / increase in minute volumes / increase in tidal volumes: normal humans
[4] = Tissue distribution and pharmacokinetics of CPT after CPT-DLPC aerosol generated with normal or 5% CO2-enriched air; details: 5% CO2-in-air versus normal air
[5] = inhalation of 5% carbon dioxide
[6] = 5% carbon dioxide for two minutes
[7] = 7.5% carbon dioxide for two minutes

- area under the lung-concentration-time curve ([1]; 5% CO2): 33.7 µg·h/g
- T1/2α in the lungs ([1]; 5% CO2-air): 0.7 h
- T1/2β in the lungs ([1]; 5% CO2-air): 5.1 h
- AUC over a 3 hr period, fifth value of list (blood) ([1]; 5% CO2-air, trapezoidal rule): 0.13±0.10 μg PTS-hr/g of tissue
- AUC over a 3 hr period, fourth value of list (kidney) ([1]; 5% CO2-air, trapezoidal rule): 2.8±1.5 μg PTS-hr/g of tissue
- AUC over a 3 hr period, liver ([1]; 5% CO2-air, trapezoidal rule): 9.8±1.9 μg PTS-hr/g of tissue
- AUC over a 3 hr period, lungs ([1]; 5% CO2-air, trapezoidal rule): 34±2 μg PTS-hr/g of tissue
- AUC over a 3 hr period, sixth value of list (brain) ([1]; 5% CO2-air, trapezoidal rule): 0.23±0.2 μg PTS-hr/g of tissue
- average pulmonary deposition increase ([1]; 5% CO2-in-air versus normal air): 2-4 fold
- Cmax ratio 5% CO2-enriched air versus ambient air ([1]; lungs): 4.2 fold
- lung AUC ratio 5% CO2 versus normal air ([1]; mouse, in vivo): 5.7 fold
- Cmax ([1]; mouse, 5% CO2-enriched air): 23100 ± 4300 ng/g
- Cmax ([1]; mouse, ambient air): 5500 ± 200 ng/g
- T1/2α in the lungs ([1]; normal air): 0.3 h
- T1/2β in the lungs ([1]; normal air): 1.6 h
- area under the lung-concentration-time curve ([1]; normal air): 5.9 µg·h/g
- levels of paclitaxel in liver, spleen, kidney and blood ([1]; normal air for aerosolization): below detectable levels
SMILES: CC(=O)O[C@H]1C(=O)[C@@]2(C)[C@H]([C@H](OC(=O)c3ccccc3)[C@]3(O)C[C@H](OC(=O)[C@H](O)[C@@H](NC(=O)c4ccccc4)c4ccccc4)C(C)=C1C3(C)C)[C@]1(OC(C)=O)CO[C@@H]1C[C@@H]2O [paclitaxel]

SMILES: O=C=O [carbon dioxide]
- effect on the growth of tumors compared to untreated mice (B16-F10 lung metastasis): no effect
- increase in tidal volume ([2]; 5% CO2-enriched air, mammalians, plethysmograph studies): 170-180%
- increase in tidal volume [2, 5]: ≤ 192%
- increase in frequency of breathing [3, 6]: 6.7%
- increase in minute volumes [3, 6]: 34%
- increase in tidal volumes [3, 6]: 31%
- increase in frequency of breathing [3, 7]: 19%
- increase in minute volumes [3, 7]: 75%
- increase in tidal volumes [3, 7]: 52%
- increase in the minute volume [3, 5]: 3 fold

SMILES: CC[C@@]1(O)C(=O)OCc2c1cc1n(c2=O)Cc2cc3ccccc3nc2-1 [camptothecin]
- average pulmonary deposition increase [4]: 2-4 fold
